Laboratory results as given in patent US20240368135A1 (VERTEX PHARMACEUTICALS INCORPORATED, priority 2021, published 2024).
Where two headings read alike, the source gives them in different places.

Molecular target: human NaV 1.8 (Homo sapiens, UniProt Q9Y5Y9)
Assay: E-VIPR assay detecting and measuring NaV inhibition properties
Format: cell-based
Settings: HEK cells expressing truncated human NaV 1.8
How it was run: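 HEK cells expressing truncated, fully active human NaV1.8, with KIR2.1 BacMam co-transduction, were loaded with CC2-DMPE/DiSBAC6(3) voltage-sensing dyes for 20 min at room temperature. Compounds were tested in 11-point 3-fold dilutions (300 nM top final), optionally with 25% human serum, under electrical stimulation with FRET read-out.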

[1] = no human serum, read-out: IC50 in the E-VIPR Assay
[2] = in the presence of human serum (compound numbers followed by *), read-out: IC50 in the E-VIPR Assay, performed in the presence of human serum

human NaV 1.8, sequence (Q9Y5Y9 126-399 limits assumed): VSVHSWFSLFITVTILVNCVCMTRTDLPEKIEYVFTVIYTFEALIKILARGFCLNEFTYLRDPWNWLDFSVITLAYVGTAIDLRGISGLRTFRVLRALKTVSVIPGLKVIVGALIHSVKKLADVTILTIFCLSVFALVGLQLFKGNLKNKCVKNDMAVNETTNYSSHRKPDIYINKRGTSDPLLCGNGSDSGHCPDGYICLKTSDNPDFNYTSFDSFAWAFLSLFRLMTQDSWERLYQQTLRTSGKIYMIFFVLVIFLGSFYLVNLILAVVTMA
human NaV 1.8, sequence (Q9Y5Y9 660-890 limits assumed): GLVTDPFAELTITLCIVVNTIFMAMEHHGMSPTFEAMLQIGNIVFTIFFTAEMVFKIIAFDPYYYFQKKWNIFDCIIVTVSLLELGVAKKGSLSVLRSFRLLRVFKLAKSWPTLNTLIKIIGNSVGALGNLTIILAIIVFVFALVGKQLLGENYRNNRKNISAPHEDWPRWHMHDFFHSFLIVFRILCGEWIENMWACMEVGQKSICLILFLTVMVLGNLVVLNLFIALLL
human NaV 1.8, sequence (Q9Y5Y9 1148-1722 limits assumed): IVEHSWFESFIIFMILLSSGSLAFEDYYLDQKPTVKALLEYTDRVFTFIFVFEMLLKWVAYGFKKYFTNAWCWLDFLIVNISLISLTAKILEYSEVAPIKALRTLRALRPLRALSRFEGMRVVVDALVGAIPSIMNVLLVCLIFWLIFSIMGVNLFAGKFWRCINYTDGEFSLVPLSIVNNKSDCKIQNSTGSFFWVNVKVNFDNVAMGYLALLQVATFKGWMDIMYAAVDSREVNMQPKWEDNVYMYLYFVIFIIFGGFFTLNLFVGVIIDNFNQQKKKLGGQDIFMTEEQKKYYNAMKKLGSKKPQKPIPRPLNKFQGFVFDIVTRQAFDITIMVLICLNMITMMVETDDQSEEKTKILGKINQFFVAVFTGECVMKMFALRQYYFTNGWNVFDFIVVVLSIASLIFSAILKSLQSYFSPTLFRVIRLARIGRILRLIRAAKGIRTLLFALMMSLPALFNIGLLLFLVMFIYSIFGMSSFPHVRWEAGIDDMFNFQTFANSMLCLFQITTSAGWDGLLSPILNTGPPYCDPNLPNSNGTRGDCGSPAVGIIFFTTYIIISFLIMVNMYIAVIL

| Compound | IC50 [1] [nM] | IC50 [2] [nM] |
| --- | --- | --- |
| Cc1nn(C(F)F)cc1NC(=O)[C@@H]1O[C@@](C)(C(F)(F)F)[C@@H](C)[C@H]1c1ccc(F)c(F)c1CCN(C)C [Compound 678, (2R,3S,4S,5R)—N-(1-(difluoromethyl)-3-methyl-1H-pyrazol-4-yl)-3-(2-(2-(dimethylamino)ethyl)-3,4-difluorophenyl)-4,5-dimethyl-5-(trifluoromethyl)tetrahydrofuran-2-carboxamide] | 100 to 1000 |  |
| Cc1nn(C(F)F)cc1NC(=O)[C@@H]1O[C@@](C)(C(F)(F)F)[C@@H](C)[C@H]1c1ccc(F)c(F)c1CCN1CC2(COC2)C1 [Compound 679, (2R,3S,4S,5R)-N-[1-(difluoromethyl)-3-methyl-pyrazol-4-yl]-3-[3,4-difluoro-2-[2-(2-oxa-6-azaspiro[3.3]heptan-6-yl)ethyl]phenyl]-4,5-dimethyl-5-(trifluoromethyl)tetrahydrofuran-2-carboxamide] | ≥ 1000 |  |
| CCOc1c(C2CC(C)(C(F)(F)F)OC2C(=O)Nc2ccn3c(OC)nnc3c2)ccc(F)c1F (centres unmarked) [Compound 708] |  | 100 to 1000 |
| COc1c([C@@H]2[C@H](C)[C@H](C(C)C)O[C@H]2C(=O)Nc2cccnc2)ccc(F)c1F [Compound 720, (2R,3S,4S,5S)-3-(3,4-difluoro-2-methoxyphenyl)-5-isopropyl-4-methyl-N-(pyridin-3-yl)tetrahydrofuran-2-carboxamide] | 100 to 1000 |  |
| COc1c([C@H]2[C@H](C(=O)Nc3ccc(C(N)=O)nc3)O[C@@](C)(C(F)(F)F)[C@H]2C)cc(O)c(F)c1F [Compound 733, 5-((2R,3S,4S,5R)-3-(3,4-difluoro-5-hydroxy-2-methoxyphenyl)-4,5-dimethyl-5-(trifluoromethyl)tetrahydrofuran-2-carboxamido)picolinamide] | < 10 |  |

Results, then the molecule that gave them:

| IC50 [1] [nM] | IC50 [2] [nM] | Compound |
| --- | --- | --- |
| 10 to 100 |  | Cc1nn(C(F)F)cc1NC(=O)[C@@H]1O[C@@](C)(C(F)(F)F)[C@@H](C)[C@H]1c1ccc(F)c(F)c1CCc1cn[nH]c1 [Compound 681, (2R,3S,4S,5R)-3-(2-(2-(1H-pyrazol-4-yl)ethyl)-3,4-difluorophenyl)-N-(1-(difluoromethyl)-3-methyl-1H-pyrazol-4-yl)-4,5-dimethyl-5-(trifluoromethyl)tetrahydrofuran-2-carboxamide] |
| < 10 |  | COc1c([C@H]2[C@H](C(=O)Nc3ccc(C(N)=O)nc3)O[C@@](C)(C(F)(F)F)[C@H]2C)ccc(OC(F)F)c1F [Compound 682, 5-((2R,3S,4S,5R)-3-(4-(difluoromethoxy)-3-fluoro-2-methoxyphenyl)-4,5-dimethyl-5-(trifluoromethyl)tetrahydrofuran-2-carboxamido)picolinamide] |
|  | 100 to 1000 | COc1cc(F)ccc1C1CC(C)(C(F)(F)F)OC1C(=O)Nc1ccnc(S(C)(=N)=O)c1 (centres unmarked) [Compound 715, 3-(4-fluoro-2-methoxy-phenyl)-5-methyl-N-[2-(methylsulfonimidoyl)-4-pyridyl]-5-(trifluoromethyl)tetrahydrofuran-2-carboxamide] |
